Results taken from US20090131470A1, “PYRAZOLE-SUBSTITUTED BENZIMIDAZOLE DERIVATIVES FOR USE IN THE TREATMENT OF CANCER AND AUTOIMMUNE DISORDERS” (priority 2005, published 2009).

Tests used:
Type in all cases: biochemical
PKA = molecular target: T1, PKA (Homo sapiens, UniProt P17612); experiment: PKA kinase assay (Kemptide substrate); settings: 100 μM ATP
T1 construct: purchased Upstate
Method: (§1) The assay mixture containing the inhibitor and CDK-2 enzyme, complexed with cyclin A (0.4 U/ml) was mixed together in a microtiter plate in a final volume of 50 μl and incubated for 40 min at 30° C. The assay mixture contained 0.1 mM unlabeled ATP, 0.01 μCi/μl ^33P-γ-ATP, 0.03 mM peptide, 0.1 mg/ml BSA, 7.5 mM magnesium acetate, 50 mM HEPES-NaOH, pH 7.5. The reaction was stopped by adding 50 μl of 50 mM phosphoric acid. 90 μl of the mixture were transferred to a pre-wetted 96-well Multiscreen MAPHNOB filtration plate (Millipore) and filtered on a vacuum manifold. The filter plate was washed with 3 successive additions of 200 μl 50 mM phosphoric acid and then with 100 μl methanol. The filtration plate was dried for 10 min at 65° C., scintillant added and phosphorylated peptide quantified in a scintillation counter (Trilux, PerkinElmer)
The PKA assay was incubated at 30° C. for 30 minutes.

Akt1 = molecular target: T2, Akt1 (Homo sapiens, UniProt P31749); experiment: Akt1 kinase assay (Histone H1 substrate); settings: 200 μM ATP, read-out: AKT-1 IC50
T2 construct: purchased Upstate
Method: Assays for the cyclin dependent kinase activity were carried out by monitoring the phosphorylation of a synthetic peptide, HATTPKKKRK. The assay mixture containing the inhibitor and CDK-2 enzyme, complexed with cyclin A (0.4 U/ml) was mixed together in a microtiter plate in a final volume of 50 μl and incubated for 40 min at 30° C. The assay mixture contained 0.1 mM unlabeled ATP, 0.01 μCi/μl ^33P-γ-ATP, 0.03 mM peptide, 0.1 mg/ml BSA, 7.5 mM magnesium acetate, 50 mM HEPES-NaOH, pH 7.5. The reaction was stopped by adding 50 μl of 50 mM phosphoric acid. 90 μl of the mixture were transferred to a pre-wetted 96-well Multiscreen MAPHNOB filtration plate (Millipore) and filtered on a vacuum manifold. The filter plate was washed with 3 successive additions of 200 μl 50 mM phosphoric acid and then with 100 μl methanol. The filtration plate was dried for 10 min at 65° C., scintillant added and phosphorylated peptide quantified in a scintillation counter (Trilux, PerkinElmer)
Protocol for the Akt assay is the same for CDK2 except that, 3 nM Akt1 (Upstate) was used with Histone H1 as substrate with a final ATP concentration of 200 μM. The reaction was incubated at 30° C. for 40 minutes.

[1] = molecular target: CDK-2 enzyme, complexed with cyclin A (Homo sapiens, UniProt P24941); experiment: CDK2 kinase assay (33P peptide phosphorylation); settings: 0.1 mM ATP, cyclin A complex
Method: as §1

PDK1 = molecular target: T3, PDK1 (Homo sapiens, UniProt O15530); experiment: PDK1 kinase assay (33P peptide phosphorylation); settings: 0.01 mM ATP, 60 min at 30° C.; read-out: PDK-1 IC50
T3 sequence (O15530 1-556): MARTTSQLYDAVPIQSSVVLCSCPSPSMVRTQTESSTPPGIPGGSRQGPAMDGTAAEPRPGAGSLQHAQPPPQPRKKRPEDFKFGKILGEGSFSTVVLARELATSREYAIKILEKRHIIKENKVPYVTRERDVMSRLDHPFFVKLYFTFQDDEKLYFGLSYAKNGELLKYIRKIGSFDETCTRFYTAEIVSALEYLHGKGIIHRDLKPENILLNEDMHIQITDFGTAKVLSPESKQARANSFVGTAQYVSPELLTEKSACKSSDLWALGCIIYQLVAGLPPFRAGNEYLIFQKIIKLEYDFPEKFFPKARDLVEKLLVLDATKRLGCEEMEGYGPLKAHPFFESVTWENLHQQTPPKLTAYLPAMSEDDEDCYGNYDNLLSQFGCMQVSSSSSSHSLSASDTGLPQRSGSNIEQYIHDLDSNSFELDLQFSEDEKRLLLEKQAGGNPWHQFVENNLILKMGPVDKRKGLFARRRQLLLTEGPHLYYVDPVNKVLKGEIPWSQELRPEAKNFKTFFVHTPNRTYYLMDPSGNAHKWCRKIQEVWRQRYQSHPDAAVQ
Method: as §1, with “and PDK1 enzyme” for “and CDK-2 enzyme, complexed with cyclin A (0.4 U/ml)”, “for 60” for “for 40”, “contained 0.01” for “contained 0.1”, “^33P-γ-ATP, 0.075” for “^33P-γ-ATP, 0.03”, “acetate, 0.05M Tris.HCl,” for “acetate, 50 mM HEPES-NaOH,”, “pH 7.5, 0.5% 2-mercaptoethanol.” for “pH 7.5.”

GST-Chk1 enzyme = molecular target: T4, GST-Chk1 enzyme (Homo sapiens, UniProt O14757); experiment: Chk1 kinase assay (33P Chktide phosphorylation); settings: 0.01 mM ATP, 40 minutes at 30° C.; read-out: CHK-1 IC50
T4 sequence (O14757 1-476): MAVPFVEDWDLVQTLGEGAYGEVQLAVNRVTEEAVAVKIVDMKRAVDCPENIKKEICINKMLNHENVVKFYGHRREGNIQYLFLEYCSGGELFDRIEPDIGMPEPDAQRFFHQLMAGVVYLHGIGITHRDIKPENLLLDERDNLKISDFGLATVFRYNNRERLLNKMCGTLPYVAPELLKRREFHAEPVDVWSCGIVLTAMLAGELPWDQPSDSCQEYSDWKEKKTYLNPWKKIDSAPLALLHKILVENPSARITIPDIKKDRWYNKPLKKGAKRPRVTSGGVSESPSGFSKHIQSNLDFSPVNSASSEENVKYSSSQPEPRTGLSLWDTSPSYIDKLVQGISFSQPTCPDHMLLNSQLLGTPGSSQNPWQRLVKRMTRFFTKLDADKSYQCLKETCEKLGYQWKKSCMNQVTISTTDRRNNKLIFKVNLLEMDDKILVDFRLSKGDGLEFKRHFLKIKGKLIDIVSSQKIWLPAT
Method: as §1, with “and Chk1 enzyme” for “and CDK-2 enzyme, complexed with cyclin A (0.4 U/ml)”, “40 minutes” for “40 min”, “C. […]” for “C. The assay mixture contained 0.1 mM unlabeled ATP, 0.01 μCi/μl ^33P-γ-ATP, 0.03 mM peptide, 0.1 mg/ml BSA, 7.5 mM magnesium acetate, 50 mM HEPES-NaOH, pH 7.5.”, “mixture was” for “mixture were”, “96-well multi-screen” for “96-well Multiscreen”

T2 sequence (P31749 whole entry, species assumed): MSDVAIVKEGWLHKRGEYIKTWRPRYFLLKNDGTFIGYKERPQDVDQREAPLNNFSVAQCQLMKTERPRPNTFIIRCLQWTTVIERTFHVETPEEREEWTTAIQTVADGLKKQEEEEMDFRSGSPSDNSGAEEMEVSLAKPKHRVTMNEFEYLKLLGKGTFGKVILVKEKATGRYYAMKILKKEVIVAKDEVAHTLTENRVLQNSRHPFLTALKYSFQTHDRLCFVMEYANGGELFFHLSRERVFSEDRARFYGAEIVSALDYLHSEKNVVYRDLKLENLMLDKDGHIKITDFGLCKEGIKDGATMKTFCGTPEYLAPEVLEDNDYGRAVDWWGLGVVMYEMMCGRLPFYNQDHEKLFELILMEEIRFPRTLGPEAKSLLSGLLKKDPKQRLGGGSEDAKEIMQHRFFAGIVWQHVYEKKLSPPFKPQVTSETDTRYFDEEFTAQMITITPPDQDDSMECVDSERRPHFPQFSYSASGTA

SMILES: Cc1[nH]nc(-c2nc3ccc(C(C)C)cc3[nH]2)c1C(=O)NC1CCN(C)CC1 [Example 46]
- IC50 (PKA): 3.8 µM
- IC50 (Akt1): > 10 µM
- IC50 [1]: 24.2 µM
- IC50 (PDK1): 0.036 µM
- IC50 (GST-Chk1 enzyme): 0.014 µM

SMILES: Cc1[nH]nc(-c2nc3ccc(C4CC4)cc3[nH]2)c1C(=O)NC1CN2CCC1CC2 (stereo not shown) [Example 47]
- IC50 (PKA): 3.82 µM
- IC50 (Akt1): > 10 µM
- IC50 [1]: > 50 µM
- IC50 (PDK1): 0.106 µM
- IC50 (GST-Chk1 enzyme): 0.085 µM
